Source: article PMC5768729, “A partially-open inward-facing intermediate conformation of LeuT is associated with Na^+ release and substrate transport” (Nature Communications, 2018)
Values belong to the molecule of their own block, whether it stands above or below them.

Key:
[1] = system: LeuT; experiment: Scintillation proximity assay, time course of 3H-substrate binding to LeuT with or without Na+ pre-incubation; parameters: species or system Aquifex aeolicus; settings: 3H-Leu 100 nM or 3H-Ala 500 nM, LeuT wild type
Description: We bound ^3H-leucine (140 Ci mmol^–1; Moravek) to purified LeuT-variants using the scintillation proximity assay (SPA) as described[17],[18] with 25 ng of purified protein per assay in buffer composed of 50 mM Tris/Mes (pH 8.0), 100 mM NaCl, 1 mM TCEP, 20% glycerol and 1 mM DDM.
Supplementary Figure 5. Pre-incubation of LeuT with Na+ modulates substrate binding.
The time course of binding of (a,c,d) 3H-Leu (100 nM) or (b) 3H-Ala (500 nM) to LeuT wild type (WT; a,b) or LeuT-L400S (c) or -F253A (d) in the absence (open black squares) or presence (filled red circles) of Na+ was measured using the scintillation proximity assay4 (see Methods). Data are shown as mean ± s.e.m. of three technical replicates of a representative experiment performed in parallel (experiments with individual mutants were repeated ≥ 2) and normalized with regard to the steady state level of LeuT-WT. […]

[2] = system: LeuT; experiment: smFRET imaging of intracellular-labeled LeuT (H7C/R86C), FRET state occupancy and dynamics; type: biochemical, Aquifex aeolicus
Description: Fluorescence experiments were performed using a prism-based total internal reflection fluorescence (TIRF) microscope as previously described[15],[16]. Microfluidic imaging chambers passivated with a mixture of PEG and biotin-PEG were prepared with 0.8 µM streptavidin (Invitrogen) and 4 nM biotin-tris-(NTA-Ni^2+)[46]. Fluorophore labeled, His-tagged LeuT molecules were reversibly immobilized to the surface-associated Ni^2+ atoms. LD550 (Cy3) fluorophores were excited by the evanescent wave generated by total internal reflection (TIR) of a 532 nm diode-pumped solid state laser (Opus, Laser Quantum). Photons emitted from LD550 (Cy3) and LD650 (Cy5) were collected using a 1.27 NA 60 × PlanApo water-immersion objective (Nikon) and a MultiCam-LS device (Cairn) with a T635lpxr-UF2 dichroic mirror (Chroma) to separate the spectral channels onto two synchronized sCMOS cameras (Flash 4.0 v2, Hamamatsu). Fluorescence data were acquired using custom software implemented in LabView (National Instruments) at 10 frames per second (100 ms time resolution).
Unless otherwise specified, all experiments were performed at 25 °C in buffer containing 50 mM Tris/Mes (pH 7.0), 10% glycerol, 1 mM DDM (Anatrace), 1 mM 2-mercaptoethanol and 200 mM total salt (KCl and NaCl, as specified). An oxygen-scavenging environment consisting of 0.2 units per ml purified glucose oxidase (Sigma G2133), 1.8 units per μl purified catalase (Sigma C40), 0.1% (v/v) glucose was used in all experiments to minimize photobleaching.
(§1) Analysis of single-molecule fluorescence data was performed using custom software written in MATLAB (MathWorks)[22]. […] FRET traces were calculated as EFRET=IA∕(IA+ID) , where IA and ID are the donor and acceptor fluorescence traces, and set to zero whenever the donor was in the dark state. […] SNRSignal (12:1 on average) is the signal magnitude relative to noise within the fluorescence trace prior to photobleaching, which includes all noise sources, including photon statistics and photophysical noise, in addition to background noise. […]

[3] = system: LeuT; experiment: smFRET imaging of extracellular-labeled LeuT (K239C/H480C), FRET state occupancy and dynamics; type: biochemical, Aquifex aeolicus; settings: no substrate
Description: Fluorescence experiments were performed using a prism-based total internal reflection fluorescence (TIRF) microscope as previously described[15],[16]. Microfluidic imaging chambers passivated with a mixture of PEG and biotin-PEG were prepared with 0.8 µM streptavidin (Invitrogen) and 4 nM biotin-tris-(NTA-Ni^2+)[46]. Fluorophore labeled, His-tagged LeuT molecules were reversibly immobilized to the surface-associated Ni^2+ atoms. LD550 (Cy3) fluorophores were excited by the evanescent wave generated by total internal reflection (TIR) of a 532 nm diode-pumped solid state laser (Opus, Laser Quantum). […] Fluorescence data were acquired using custom software implemented in LabView (National Instruments) at 10 frames per second (100 ms time resolution). […]
as §1

Effect of pre-incubating LeuT with Na+ on the rate of substrate binding [1]: no such delay in binding
SMILES: C[C@H](N)C(=O)O [Ala, alanine]

Effect of pre-incubating LeuT with Na+ on the rate of substrate binding [1]: dramatically slowed
SMILES: CC(C)C[C@H](N)C(=O)O [Leu, leucine]

EC50 ([2]; LiCl titration in the presence of 250 μM Ala, Hill coefficient fixed at 2.0, read-out: EC50 of dose-response fit of intracellular high-FRET state occupancy): 100 mM
EC50 ([2]; LiCl titration in the presence of 250 μM Ala, Hill coefficient fixed at 2.0, read-out: EC50 of dose-response fit of intracellular intermediate-FRET state occupancy): 67 mM
EC50 for inducing high-FRET state stabilization, fold higher than for Na+ ([3]; extracellular side): seven-fold higher
SMILES: [Li+] [Li^+]

EC50 ([2]; NaCl titration in the presence of 250 μM Ala, read-out: EC50 values of dose-response fits of intracellular low-, intermediate- and high-FRET state occupancies): 8 to 20 mM
EC50 ([3]; Na+ titration, Hill coefficient fixed at 2.0, read-out: EC50 of dose-response fit of extracellular FRET state occupancy): 55 mM
SMILES: [Na+] [Na^+, sodium]
